# Data taken from patent publication US5017568A, “Steriod 5-alpha-reductase inhibitors” (SmithKline Beecham Corporation, priority 1990, dated 1991).
# pKi: −log10 of the molar value. “Also recorded” adds a separate entry of the source. Like-named read-outs stand apart in the source and are kept apart here.
# Key:
# [1] = molecular target: T1, human prostatic steroid 5-α-reductase (Homo sapiens, UniProt P31213); test: Inhibition of human prostatic steroid 5-α-reductase (conversion of [14C]-testosterone, prostatic particulates); assay type: biochemical; conditions: for pKi: pH 5.0, 37° C., competitive versus testosterone assumed, Dixon analysis, read-out: Inhibition Constants of Human Prostatic Steroid 5-α-Reductase, Ki
# T1 construct: Prostatic particles were obtained by differential centrifugation; from tissue; host or cells: hyperplastic human prostate, particulate fraction (140,000 x g pellet)
# T1 sequence (P31213 1-254): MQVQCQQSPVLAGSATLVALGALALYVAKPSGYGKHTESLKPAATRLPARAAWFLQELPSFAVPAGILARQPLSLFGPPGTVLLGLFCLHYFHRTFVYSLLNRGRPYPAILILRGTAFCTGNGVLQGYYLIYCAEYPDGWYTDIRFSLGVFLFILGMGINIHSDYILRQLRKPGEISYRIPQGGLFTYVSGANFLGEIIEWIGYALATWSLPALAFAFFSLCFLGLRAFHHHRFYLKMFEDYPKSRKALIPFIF
# Description: Such diseases and conditions include acne vulgaris, seborrhea, female hirsutism, prostate diseases such as benign prostatic hypertrophy and prostatic adenocarcinoma and male pattern baldness. The potency of several compounds of the invention was tested for potency in inhibiting human steroid 5-α-reductase using tissue from hyperplastic human prostates. In determining potency in inhibiting the human enzyme, the following procedure was employed:
# Frozen human prostates were thawed and minced into small pieces (5 mm^3). The tissue was homogenized in 3 to 5 volumes of 20 mM potassium phosphate, pH 6.5, buffer containing 0.33 M sucrose, 1 mM dithiothreitol, and 50 μM NADPH with a Brinkmann Polytron (Sybron Corporation, Westbury, N.Y.). The solution was subjected to sonication for 3 to 5 minutes with a Sonifier Branson Sonic Power Co.) followed by hand homogenization in a glass-to-glass Dounce homogenizer (Kontes Glass Company, Vineland, N.J.).
# Prostatic particles were obtained by differential centrifugation at 600 or 1,000 x g for 20 minutes and 140,000 x g for 60 minutes at 4° C. The pellet obtained from the 140,000 x g centrifugation was washed with 5 to 10 tissue volumes of the buffer described above and recentrifuged at 140,000 x g. The resulting pellet was suspended in 20 mM potassium phosphate buffer, pH 6.5, containing 20% glycerol, 1 mM dithiothreitol, and 50 μM NADPH. The suspended particulate solution was stored at -80° C.
# A constant amount of [^14 C]-testosterone (52 to 55 mCi/mmol, New England Nuclear, Boston, MA) in ethanol and varying amounts of the potential inhibitor in ethanol were deposited in test tubes and concentrated to dryness in a SAVANT Speed Vac. To each tube was added buffer, 20 μl of 10 mM NADPH and an aliquot of prostatic particulate solution to a final volume of 1.0 ml of 50 mM sodium citrate, pH 5.0. After incubating the solution at 37° C. for 20 to 30 minutes the reaction was quenched by the addition of 4 ml ethyl acetate and 0.25 μmol each of testosterone, dihydrotestosterone, androstanediol, and androstanedione as carriers. The organic layer was removed to a second test tube and evaporated to dryness in a Speed Vac. The residue was dissolved in 20 to 30 μl chloroform, spotted on an individual lane of a 20 x 20 cm prechannelled silica gel TLC plate (Si 250F PA, Baker Chemical) and developed twice with acetone:chloroform (1:9). The radiochemical content in the bands of the substrate and the products was determined with a BIOSCAN Imaging Scanner (Bioscan, Inc., Washington, D.C.). The percent of recovered radiolabel converted to product was calculated, from which enzyme activity was determined. All incubations were conducted such that no more than 12% of the substrate (testosterone) was consumed.
# The experimentally obtained data was computer fitted to a linear function by plotting the reciprocal of the enzyme activity (1/velocity) against the variable inhibitor concentration (Dixon, M. (1953), Biochem. J., 55, 170). Assuming that the steroidal inhibitor is a competitive inhibitor against testosterone, a value for the inhibition constant (Ki) can be calculated from equation 1:
# Ki =(B/A)/[…]) Equation 1
# [2] = molecular target: steroid 5-α-reductase; conditions: cited from earlier work; for mode of 5-α-reductase inhibition: in words
# [3] = test system: steroid 5-α-reductase; test: In vivo inhibition of steroid 5-α-reductase: prostatic DHT (and testosterone) levels in rats; set-up: species or system rat
# Description: Certain compounds of the invention also were tested for their in vivo potency in inhibiting steroid 5-α-reductase activity. Male Charles River CD rats, 48 days old, weighing approximately 200 gm were administered 10 mg/kg of N,N-diisopropyl androst-3,5-diene-17β-carboxamide-3-carboxylic acid dissolved in propylene glycol and diluted in normal saline. Following compound administration the animals were sacrificed, the ventral prostates were excised, and DHT levels were measured by the following procedure.
# Prostate tissue was excised, trimmed, weighed, minced and washed with phosphate buffer. The tissue then was homogenized in phosphate buffer and extracted by addition of ethyl acetate and mixing on an orbital mixer for forty-five minutes. The ethyl acetate was evaporated, the residue was reconstituted in ethanol, and was centrifuge filtered using […] filter paper. The components then were separated using reverse-phase HPLC collecting the DHT fraction. The fraction was reduced to dryness and reconstituted in standard DHT assay buffer available from Amersham. DHT levels then were measured using standard techniques such as radioimmunoassay.
# Using procedures similar to those described above the in vivo effects of 17β-N-t-butylcarbox-amide-androst-3,5-diene-3-carboxylic acid also were studied. Rats received a single oral dose of vehicle or 5, 10, 20 or 50 mg/kg of this compound.
# [4] = test system: ventral prostate; test: Effect of repeated dosing on prostatic growth / ventral prostate weight in rats; assay type: in vivo, rat; conditions: for ventral prostate weight, percent of control: rats, two weeks
# Description: N,N diisopropyl-androst-3,5 diene 17β-carboxamide-3-carboxylic acid also was tested for its effects on prostatic growth.
# [5] = test system: seminal vesicle; test: Effect of repeated dosing on seminal vesicle weight in rats; assay type: in vivo, rat; conditions: rats, 1, 5, 10, 25 or 50 mg/kg twice daily, two weeks
# [6] = test system: steroid-5-α-reductase; test: In vitro steroid 5-α-reductase inhibition; assay type: biochemical; conditions: in words
# [7] = Irreversible, read-out: 5-α-reductase inhibition constant (Table 1)
structure (smiles),measurement,setting,value
C[C@H](CO)[C@H]1CC[C@H]2[C@@H]3CC[C@H]4C(F)=C(C(=O)O)CC[C@]4(C)[C@H]3CC[C@]12C,pKi,[1],5.70
CCOC(=O)C1=CC2=CC[C@H]3[C@@H]4CC[C@H](C(=O)N(C(C)C)C(C)C)[C@@]4(C)CC[C@@H]3[C@@]2(C)CC1,pKi,[1],5.40
CC(C)N(C(=O)[C@H]1CC[C@H]2[C@@H]3CC[C@H]4C(F)=C(C(=O)O)CC[C@]4(C)[C@H]3CC[C@]12C)C(C)C,pKi,[1],7.59
CC(C)N(C(=O)[C@H]1CC[C@H]2[C@@H]3CC=C4C=C(C(=O)O)C=C[C@]4(C)[C@H]3CC[C@]12C)C(C)C,pKi,[1],7.30
CC(C)N(C(=O)[C@H]1CC[C@H]2[C@@H]3CC(C(F)(F)F)=C4C=C(C(=O)O)CC[C@]4(C)[C@H]3CC[C@]12C)C(C)C,pKi,[1],6.05
CC(C)(C)NC(=O)[C@H]1CC[C@H]2[C@@H]3CC[C@H]4C=C(C(=O)O)CC[C@]4(C)[C@H]3CC[C@]12C,pKi,[1],6.96
C[C@]12CC[C@H]3[C@@H](CCC4=CC(=O)CC[C@@]43C)[C@@H]1CC[C@@H]2C(=O)O [(1)],pKi,"[2]; Hsia and Voight 1973, read-out: K1",5.96
CC(=O)[C@H]1CC[C@H]2[C@@H]3CC=C=CC(=O)CCC(=O)[C@H]3CC[C@]12C [(2)],pKi,[2]; [7],6.00
same,mode of 5-α-reductase inhibition,[2],Irreversible; also recorded: affinity label for 5 -α-reductase
CC(CO)[C@H]1CC[C@H]2[C@@H]3CC[C@H]4C(=[N+]=[N-])C(=O)CC[C@]4(C)[C@H]3CC[C@]12C (some centres unmarked) [(3)],pKi,"[2]; Irreversible, Blohm, et al., 1980, read-out: 5-α-reductase inhibition constant (Table 1)",7.46
same,mode of 5-α-reductase inhibition,[2],"Irreversible; also recorded: potent, time-dependent inhibitor"
CCN(CC)C(=O)[C@H]1CC[C@H]2[C@@H]3CC[C@H]4N(C)C(=O)CC[C@]4(C)[C@H]3CC[C@]12C [(4)],pKi,"[2]; Liang, et al., 1983, read-out: 5-α-reductase inhibition constant (Table 1)",8.30
C=C1C[C@@H]2[C@H](CC[C@@]3(C)[C@H]2CC[C@]3(OC(C)=O)C(C)=O)[C@@]2(C)CCC(=O)C=C12 [(5)],pKi,[2]; [7],5.90
same,mode of 5-α-reductase inhibition,[2],Irreversible; also recorded: time-dependent inactivator
"CC(C)N(C(=O)[C@H]1CC[C@H]2[C@@H]3CC=C4C=C(C(=O)O)CC[C@]4(C)[C@H]3CC[C@]12C)C(C)C [N,N-Diisopropyl-androst-3,5-diene-17β-carboxamide-3-carboxylic acid]",duration of decreased DHT levels,"[3]; male CD rats, 10 mg/kg",greater than eight
same,decrease of prostatic DHT levels relative to vehicle-treated controls,"[3]; male CD rats, 10 mg/kg, four hours after administration",forty
same,return of prostatic DHT levels to control,"[3]; male CD rats, 10 mg/kg, twenty four hours after treatment",had returned to control levels
same,prostatic growth,"[4]; immature rats, 0.5 to 50 mg/kg twice daily oral, fourteen days",dose dependent decrease in prostatic growth
same,decrease of prostate weight versus controls,"[4]; immature rats, maximum dose group (50 mg/kg), twice daily oral, fourteen days",forty to fifty
"CC(C)(C)NC(=O)[C@H]1CC[C@H]2[C@@H]3CC=C4C=C(C(=O)O)CC[C@]4(C)[C@H]3CC[C@]12C [N-t-Butyl Androst-3,5-diene-17β-carboxamide-3-Carboxylic Acid]","prostate dihydrotestosterone levels, percent of controls","[3]; rats, 10 mg/kg, all time points from two to eighteen hours",approximately sixty
same,prostate testosterone levels,"[3]; rats, 10 mg/kg, over twenty four hours",viable without consistent trends
same,return of dihydrotestosterone levels to control values,"[3]; rats, 10 mg/kg, twenty-four hours post treatment",returned to control values
same,prostate testosterone levels,"[3]; rats, single oral dose 5, 10, 20 or 50 mg/kg",remained unaffected
same,"prostate dihydrotestosterone levels, percent of controls","[3]; rats, single oral dose 5, 10, 20 or 50 mg/kg (all doses)",approximately fifty
same,"ventral prostate weight, percent of control",[4]; 5 mg/kg twice daily,ninety
same,"ventral prostate weight, percent of control",[4]; 10 and 50 mg/kg twice daily,sixty five
same,seminal vesicle weights,[5],significantly reduced at all treatment levels
CC(C)(C)NC(=O)[C@H]1CC[C@H]2[C@@H]3CC=C4C=C(C(=O)O)CC[C@]4(C)[C@H]3CC[C@]12C [drawing 35],pKi,[1],7.52
"COC(=O)C1=CC2=CC[C@H]3[C@@H]4CC[C@H](C(=O)N(C(C)C)C(C)C)[C@@]4(C)CC[C@@H]3[C@@]2(C)CC1 [methyl ester of the above compound, 3-Carbomethoxy-androst-3,5-diene-17β-N,N -diisopropylcarboxamide]",steroid-5-α-reductase inhibition in vitro,[6],does not inhibit steroid-5-α-reductase in vitro
same,decrease of prostatic DHT levels relative to vehicle-treated controls,"[3]; rats, single 10 mg/kg dose, after six hours",forty eight
same,steroid 5-α-reductase inhibition in vivo,"[3]; rats, single 10 mg/kg dose, in words",significant enzyme inhibition
"C[C@]12CC[C@H]3[C@@H](CCC4=CC(=O)CC[C@@]43C)[C@@H]1CC[C@@H]2O [testosterone, reference compound]",Km,"[1]; determined in a separate experiment, read-out: Km of the substrate (testosterone)",4.5 µM
